Data: ChEMBL document CHEMBL1201862, “PubChem BioAssay data set” (2004)
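Method: 48-hour compound exposure of cells in 96-well plates, five concentrations, linear interpolation of endpoints. At the GI50, growth is halved.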 Activity calls are given as the source filed them. Cut-off read from the data, not from the text of the source: active = GI50 up to about 1.1 µM and inactive = higher.

Legend:
Experiment in all cases: growth of human tumour cells (NCI), 48 h
[1] = system: NCI-H522
[2] = system: MCF7
[3] = system: SNB-19
[4] = system: HT-29
[5] = system: ACHN
[6] = system: SF-539
[7] = system: HCT-116
[8] = system: Hs-578T
[9] = system: CCRF-CEM
[10] = system: NCI-H226
[11] = system: K562
[12] = system: KM12
[13] = system: T47D
[14] = system: MOLT-4
[15] = system: OVCAR-5
[16] = system: NCI-H23
[17] = system: SK-MEL-5
[18] = system: CAKI-1

Measured: GI50

CC(=O)N1c2ccccc2C2=NN(C)C(=N)SC21 (stereo not drawn)
inactive: [1] 67.8 µM | [2] > 100 µM | [3] > 100 µM | [4] > 100 µM | [5] > 100 µM | [6] > 100 µM | [7] > 100 µM | [8] > 100 µM | [9] > 100 µM | [10] > 100 µM | [11] > 100 µM | [12] > 100 µM | [13] 29.9 µM | [14] > 100 µM | [15] > 100 µM | [16] > 100 µM

CCCCCCc1cc2cc(C(=O)Nc3cccc(F)c3)c(=N)oc2cc1O
inactive: [1] 1.59 µM | [2] 3.19 µM | [3] 3.55 µM | [4] 17.9 µM | [5] 3.16 µM | [6] 3.26 µM | [7] 2.86 µM | [8] 2.21 µM | [9] 1.63 µM | [17] 1.4 µM | [11] 1.15 µM | [18] 2.9 µM | [12] 2.71 µM | [13] 2.04 µM | [14] 1.95 µM | [15] 3.6 µM | [16] 2.12 µM

c1ccc(CCN2CCCCCC2)nc1
inactive: [1] > 100 µM | [2] > 100 µM | [3] > 100 µM | [4] > 100 µM | [5] > 100 µM | [7] > 100 µM | [8] > 100 µM | [9] > 100 µM | [17] > 100 µM | [10] > 100 µM | [11] > 100 µM | [18] > 100 µM | [12] > 100 µM | [13] > 100 µM | [14] > 100 µM | [15] > 100 µM | [16] > 100 µM

CN(C)CCNc1nc2ccccc2c2c1CCCC2
inactive: [1] 16.3 µM | [2] 14.8 µM | [3] 29.9 µM | [4] 22.8 µM | [5] 23.9 µM | [6] 28.2 µM | [7] 14.8 µM | [8] 32.7 µM | [17] 15.3 µM | [10] 21.1 µM | [11] 20.3 µM | [18] 16.9 µM | [12] 19.3 µM | [13] 16.7 µM | [14] 23.2 µM | [15] 30.4 µM | [16] 33.3 µM

C=C(C)C1=CCC[C@]2(C1)N=C(OC)[C@@H](C(C)C)N=C2OC
inactive: [1] 31.3 µM | [2] 92.7 µM | [3] > 100 µM | [4] > 100 µM | [5] > 100 µM | [6] > 100 µM | [7] > 100 µM | [8] > 100 µM | [9] 34.3 µM | [17] 98.6 µM | [10] > 100 µM | [18] > 100 µM | [12] > 100 µM | [13] > 100 µM | [14] 28.7 µM | [15] > 100 µM | [16] > 100 µM

Cc1cccnc1N/C=C1\C(=O)NC(=O)N(C)C1=O
inactive: [1] 1.69 µM | [2] > 100 µM | [3] > 100 µM | [4] > 100 µM | [5] > 100 µM | [6] > 100 µM | [7] > 100 µM | [8] > 100 µM | [17] > 100 µM | [10] > 100 µM | [18] > 100 µM | [12] > 100 µM | [13] 55.7 µM | [14] > 100 µM | [15] > 100 µM | [16] 49.7 µM

CC(=O)OC1CCC2(C)C(CCC3C2CC(=O)C2(C)C3CC(N3CC3)C2C(C)=O)C1 (stereo not drawn)
inactive: [1] 12.2 µM | [2] 15.4 µM | [3] 20.9 µM | [4] 22.6 µM | [5] 13.8 µM | [6] 11.8 µM | [7] 20.7 µM | [8] 15.1 µM | [17] 15.2 µM | [10] 19.1 µM | [11] 15.2 µM | [18] 16.1 µM | [12] 17.1 µM | [13] 18.7 µM | [14] 2.11 µM | [15] 37.4 µM | [16] 16.7 µM

CN(C)C(=S)Oc1ccc2ccc(=O)oc2c1
inactive: [1] > 100 µM | [2] > 100 µM | [3] > 100 µM | [4] > 100 µM | [5] > 100 µM | [6] > 100 µM | [7] > 100 µM | [8] > 100 µM | [17] > 100 µM | [10] > 100 µM | [18] > 100 µM | [12] > 100 µM | [13] > 100 µM | [14] > 100 µM | [15] > 100 µM | [16] > 100 µM

COC1(OC)CCCCCCCCC(OC)(OC)CCCCCCCC1
inactive: [1] > 100 µM | [2] > 100 µM | [3] > 100 µM | [4] > 100 µM | [5] > 100 µM | [6] > 100 µM | [7] > 100 µM | [8] > 100 µM | [17] > 100 µM | [10] > 100 µM | [11] > 100 µM | [18] > 100 µM | [12] > 100 µM | [13] > 100 µM | [15] > 100 µM | [16] > 100 µM

CC(=O)Oc1ccc2cc(Oc3ccc(Cl)cc3)c(=O)oc2c1
inactive: [1] 22.3 µM | [2] 32.7 µM | [3] 60.4 µM | [4] 63.7 µM | [5] 38.8 µM | [6] 33.3 µM | [7] 27.5 µM | [8] 79.1 µM | [17] 20.4 µM | [10] 41.5 µM | [18] 53 µM | [12] 37.8 µM | [13] 34.1 µM | [15] > 100 µM | [16] 41.4 µM

Cc1ccc(C2SC(=N)Nc3c2c(C)nn3C(=O)c2ccccc2O)cc1 (stereo not drawn)
inactive: [2] > 10 µM | [3] > 10 µM | [4] > 10 µM | [5] 6.03 µM | [6] 5.68 µM | [7] > 10 µM | [8] 1.51 µM | [9] > 10 µM | [17] 4.37 µM | [10] > 10 µM | [11] 4.35 µM | [18] > 10 µM | [12] > 10 µM | [13] > 10 µM | [14] 7.43 µM | [15] > 10 µM | [16] 7 µM

C=C(C)CNC(=S)N(N)c1ccc2ccccc2c1
inactive: [1] 46.6 µM | [2] 26.5 µM | [3] > 100 µM | [4] 65.3 µM | [5] 34.5 µM | [6] > 100 µM | [7] > 100 µM | [8] > 100 µM | [9] 95.3 µM | [17] > 100 µM | [10] > 100 µM | [11] 40.4 µM | [12] 13.6 µM | [13] 24.2 µM | [14] > 100 µM | [15] 27.7 µM | [16] > 100 µM
